PubChem BioAssay (NCI)
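Cells were grown in 96-well plates and exposed to each compound for 48 hours at five concentrations; endpoints were interpolated linearly between bracketing concentrations, or set to the highest concentration if not reached. TGI: total growth inhibition.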 Where a SMILES comes first, the peptide text is derived from it.

Legend:
Assay in all cases: DTP human tumour cell line panel, 48 h
COLO 205 colon = test system: COLO 205 colon
NCI-H23 lung = test system: NCI-H23 lung
NCI-H460 lung = test system: NCI-H460 lung
SF-268 CNS = test system: SF-268 CNS

Row | SMILES | TGI (COLO 205 colon) | TGI (NCI-H23 lung) | TGI (NCI-H460 lung) | TGI (SF-268 CNS)
1 | Cc1cccc2c1[C@]13OC(C)[C@]4(C)CC5OC(=O)[C@@]1(C)[C@@H]5[C@]34C(=O)O2 (stereo partly specified) | > 100 µM | > 100 µM | > 100 µM | > 100 µM
2 | Cc1cn(C2CC(ON3C(=O)c4ccccc4C3=O)C(CO)O2)c(=O)[nH]c1=O (stereo unspecified) |  | > 10 µM | > 10 µM | > 10 µM
3 | CC1(C#N)CC(C)(C)C(/C=C2/CC(C)(C)C(/C=C3/OC(=N)CC3(C)C)=N2)=N1 (stereo unspecified) | 34.4 µM | 60.6 µM | 39.9 µM | > 100 µM
4 | O=C(CC(c1ccccc1)N1CCCCC1)c1ccccc1 (stereo unspecified) | 37.9 µM | 31.6 µM | 26.6 µM | 33.4 µM
5 | COC(CN(C(=O)c1ccccc1)C1CCC2(SCCS2)c2[nH]c3ccccc3c21)OC (stereo unspecified) | 59.3 µM | > 100 µM | > 100 µM | > 100 µM
6 | CC(=O)N(C(=O)CC(=O)N/N=C\c1ccc(Br)c(N(CCC#N)CCC#N)c1)c1ccc(Cl)cc1 | > 100 µM | > 100 µM | > 100 µM | > 100 µM
7 | CCC(C)C(NC(=O)C(CCCCN)NC(=O)C(NC(=O)C(CCC(N)=O)NC(=O)C(N)CCCNC(=N)N)C(C)CC)C(=O)NC(Cc1c[nH]c2ccccc12)C(=O)NC(Cc1ccccc1)C(=O)NC(CCC(N)=O)C(=O)NC(CC(N)=O)C(=O)NC(CCCNC(=N)N)C(=O)NC(CCCNC(=N)N)C(=O)NC(CCSC)C(=O)NC(CCCCN)C(=O)NC(Cc1c[nH]c2ccccc12)C(=O)NC(CCCCN)C(=O)NC(CCCCN)C(=O)N1CCCC1C(=O)NC(C)C(=O)NC(CCCCN)C(=O)NC(CCCNC(=N)N)C(=O)NC(CCCCN)C(=O)NC(CC(C)C)C(=O)NC(Cc1ccccc1)C(=O)NCC(=O)O (stereo unspecified) (H-RQIKIWFQNRRMKWKKPAKRKLFG-OH; configuration not given here) | > 25 µM | > 25 µM | > 25 µM | > 25 µM
8 | C=CCNC1=C2C[C@@H](C)C[C@@H](OC)[C@@H](OC(=O)CCCN)[C@H](C)/C=C(\C)[C@@H](OC(N)=O)[C@H](OC)/C=C\C=C(/C)C(=O)NC(=CC1=O)C2=O | 13.6 µM | 29.6 µM | 59 µM | 30.7 µM
9 | c1cc(-c2ncc(-c3ccc4c(c3)CCCO4)o2)ccn1 | 91.5 µM | 52.2 µM |  | 86.3 µM
10 | CC(=O)Oc1ccccc1-c1cc2ccccc2oc1=O | > 100 µM | > 100 µM | > 100 µM | > 100 µM
11 | CC1=NC(=Cc2ccc(O)cc2)C(=O)N1n1c(-c2ccccc2)nc2ccccc2c1=O | > 100 µM | > 100 µM | > 100 µM | > 100 µM
12 | N#Cc1c(-c2ccccc2)[nH]c2ccccc2c1=O | > 100 µM |  | > 100 µM | > 100 µM
13 | COn1cc(C=O)c2ccccc21 | > 100 µM | > 100 µM | > 100 µM | > 100 µM
14 | CCN1c2nc3ccccc3nc2N(CC)c2nc3ccccc3nc21 | > 100 µM | > 100 µM | > 100 µM | > 100 µM
15 | COC(=O)C1=C(C)NC(C)=C(C(=O)OC)C1c1ccc(/[N+]([O-])=C/c2ccccc2)cc1 | 35.1 µM | > 100 µM | > 100 µM | > 100 µM
16 | CSC1=C(SC)SC(=C2SC3=C(SC(=C4SCCS4)S3)S2)S1 | > 100 µM | > 100 µM | > 100 µM | > 100 µM
17 | Cc1ccc(S(=O)(=O)C2=Cc3ccc(C(F)(F)F)cc3C2(O)c2cccc(C(F)(F)F)c2)cc1 (stereo unspecified) | 3.43 µM | 6.26 µM | 6.9 µM | 8.65 µM
18 | COC1=C(Br)[C@H](O)[C@@]2(C=C1Br)CC(C(=O)NCCCCCN=C(N)N)=NO2 | > 10 µM | > 10 µM | > 10 µM | > 10 µM
19 | NS(=O)(=O)c1ccc(-n2c(-c3cccs3)nc3ccc(I)cc3c2=O)cc1 | 40.3 µM | 51.1 µM | 83 µM | 86.8 µM
20 | O=C1c2cc3c(cc2CC12Cc1cc4c(cc1C2=O)CCC4)CCCC3 (stereo unspecified) |  | > 100 µM | > 100 µM | > 100 µM
21 | O=C(O)c1nc(-c2ccccn2)c(-c2ccccn2)nc1C(=O)O | 7.75 µM | 23.6 µM | 4.85 µM | 24.1 µM
22 | Cn1ccc(C(=O)NCCOCCNC(=O)c2ccn(C)c(=O)c2O)c(O)c1=O | > 100 µM | > 100 µM | > 100 µM | > 100 µM
23 | CCC1OC2C(CC=C(C)C)=C3OC(C)(O)C(C)(CC)C(OC(=O)c4ccccc4)C3=C3OC(=O)C=C1C32 (stereo unspecified) | 39.8 µM | > 100 µM | > 100 µM | > 100 µM
24 | Cc1ccc2nc(-c3ccc(N)c(I)c3)sc2c1 | 30.9 µM |  | > 100 µM | 88.7 µM
